Reference: PubChem BioAssay AID330 (DTP/NCI, 2004)
“And” between values parts separate entries of the source, which are not always exact repeats. Equal values may be shown once. Inconclusive results and toxic doses are left out.

System: P388 leukemia ip, CD2F1 mice, survival T/C
Assay: NCI In Vivo Anticancer Drug Screen. Data for tumor model P388 Leukemia (intraperitoneal) in CD2F1 (CDF1) mice
Conditions: endpoint: median survival time, higher = longer survival
Outline: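 Mice carrying the transplanted tumor received test compound or vehicle. Survival was recorded in each group, and the value is the treated-group measurement divided by that of the vehicle-treated control group.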

[1] = dose: 25.0 mg/kg/injection, schedule: Q01DX009 (ip), vehicle: saline
[2] = dose: 50.0 mg/kg/injection, schedule: Q01DX009 (ip), vehicle: saline
[3] = dose: 100.0 mg/kg/injection, schedule: Q01DX009 (ip), vehicle: saline
[4] = dose: 6.25 mg/kg/injection, schedule: Q01DX009 (ip), vehicle: saline with Tween-80
[5] = dose: 12.5 mg/kg/injection, schedule: Q01DX009 (ip), vehicle: saline with Tween-80
[6] = dose: 25.0 mg/kg/injection, schedule: Q01DX009 (ip), vehicle: saline with Tween-80
[7] = dose: 60.0 mg/kg/injection, schedule: Q01DX005 (ip), vehicle: saline

SMILES: CC(=O)O[C@@H]1C(=O)[C@]2(CO)C(C(OC(=O)c3ccccc3)C3(O)CC(O)C(C)=C1C3(C)C)[C@@]1(OC(C)=O)CO[C@H]1C[C@H]2O (stereo partly drawn)
- T/C (dose: 0.26 mg/kg/injection, schedule: Q01DX009 (ip), vehicle: distilled water + alcohol): 108 % of control
- T/C (dose: 0.53 mg/kg/injection, schedule: Q01DX009 (ip), vehicle: distilled water + alcohol): 106 % of control
- T/C (dose: 1.07 mg/kg/injection, schedule: Q01DX009 (ip), vehicle: distilled water + alcohol): 106 % of control
- T/C (dose: 2.15 mg/kg/injection, schedule: Q01DX009 (ip), vehicle: distilled water + alcohol): 105 % of control
- T/C (dose: 4.3 mg/kg/injection, schedule: Q01DX009 (ip), vehicle: distilled water + alcohol): 108 % of control

SMILES: COCOC(/C=C/C=C/CCCCOCc1ccccc1)CCC/C=C(\C)CO (stereo not drawn)
- T/C (dose: 50.0 mg/kg/injection, schedule: Q01DX001 (ip), vehicle: saline with Tween-80): 104 % of control
- T/C (dose: 100.0 mg/kg/injection, schedule: Q01DX001 (ip), vehicle: saline with Tween-80): 102 % of control
- T/C (dose: 200.0 mg/kg/injection, schedule: Q01DX001 (ip), vehicle: saline with Tween-80): 103 % of control

SMILES: O=C(Cn1c(=O)sc2ccc(Cl)cc21)N1CCN(CCO)CC1
- T/C [1]: 105 % of control
- T/C [2]: 105 % of control
- T/C [3]: 99 % of control
- T/C (dose: 200.0 mg/kg/injection, schedule: Q01DX009 (ip), vehicle: saline): 94 % of control

SMILES: O=C(C[n+]1ccccc1)N/N=C/c1ccc([N+](=O)[O-])s1
- T/C [4]: 100 % of control
- T/C (dose: 6.25 mg/kg/injection, schedule: Q01DX009 (ip), vehicle: saline): 104 % of control
- T/C [5]: 96 % of control
- T/C (dose: 12.5 mg/kg/injection, schedule: Q01DX009 (ip), vehicle: saline): 100 % of control
- T/C [6]: 116 % of control
- T/C [1]: 100 % of control

SMILES: CC(C)N(CC#CCO)CCO
- T/C [7]: 99 % of control
- T/C (dose: 120.0 mg/kg/injection, schedule: Q01DX005 (ip), vehicle: saline): 100 % of control
- T/C (dose: 240.0 mg/kg/injection, schedule: Q01DX005 (ip), vehicle: saline): 99 % of control

SMILES: CC(=O)Nc1ccc(N)cc1C
- T/C (dose: 100.0 mg/kg/injection, schedule: Q04DX002 (ip), vehicle: saline): 96 % of control
- T/C (dose: 200.0 mg/kg/injection, schedule: Q04DX002 (ip), vehicle: saline): 97 % of control
- T/C (dose: 400.0 mg/kg/injection, schedule: Q04DX002 (ip), vehicle: saline): 97 % of control

SMILES: CC1(C)CC(=O)C=C(Nc2ccc(O)cc2)C1
- T/C (dose: 6.25 mg/kg/injection, schedule: Q01DX005 (ip), vehicle: saline with Tween-80): 100 % of control
- T/C (dose: 12.5 mg/kg/injection, schedule: Q01DX005 (ip), vehicle: saline with Tween-80): 100 % of control
- T/C (dose: 25.0 mg/kg/injection, schedule: Q01DX005 (ip), vehicle: saline with Tween-80): 96 % of control
- T/C (dose: 100.0 mg/kg/injection, schedule: Q01DX005 (ip), vehicle: saline with Tween-80): 86 % of control

SMILES: NCCCCNC(c1ccccc1)C(O)c1ccccc1 (stereo not drawn)
- T/C (dose: 50.0 mg/kg/injection, schedule: Q01DX009 (ip), vehicle: Klucel (hydroxypropylcellulose) (HPC)): 100 % of control
- T/C (dose: 100.0 mg/kg/injection, schedule: Q01DX009 (ip), vehicle: Klucel (hydroxypropylcellulose) (HPC)): 99 % of control

SMILES: COc1ccc2c(c1O)-c1cccc3c1[C@@H](C2)N(CCOC(=O)NCCCl)CC3
- T/C (dose: 9.38 mg/kg/injection, schedule: Q04DX003 (ip), vehicle: distilled water + Tween-80): 101 % of control
- T/C (dose: 18.75 mg/kg/injection, schedule: Q04DX003 (ip), vehicle: distilled water + Tween-80): 99 % of control
- T/C (dose: 37.5 mg/kg/injection, schedule: Q04DX003 (ip), vehicle: distilled water + Tween-80): 97 % of control
- T/C (dose: 75.0 mg/kg/injection, schedule: Q04DX003 (ip), vehicle: distilled water + Tween-80): 99 % of control
- T/C (dose: 150.0 mg/kg/injection, schedule: Q04DX003 (ip), vehicle: distilled water + Tween-80): 99 % of control
- T/C (dose: 300.0 mg/kg/injection, schedule: Q04DX003 (ip), vehicle: distilled water + Tween-80): 105 % of control

SMILES: CN(C)c1ccc(N2C(N)=NC(N)=NC2(C)C)cc1
- T/C (dose: 15.0 mg/kg/injection, schedule: Q01DX005 (ip), vehicle: saline): 94 % of control
- T/C (dose: 30.0 mg/kg/injection, schedule: Q01DX005 (ip), vehicle: saline): 95 % of control
- T/C [7]: 98 % of control and 95 % of control

SMILES: COc1c2c(c(OC)c3c1C(=O)c1ccccc1C3=O)CC=CC2
- T/C (dose: 1.56 mg/kg/injection, schedule: Q01DX009 (ip), vehicle: water): 101 % of control
- T/C (dose: 3.13 mg/kg/injection, schedule: Q01DX009 (ip), vehicle: water): 104 % of control
- T/C (dose: 6.25 mg/kg/injection, schedule: Q01DX009 (ip), vehicle: water): 103 % of control
- T/C (dose: 12.5 mg/kg/injection, schedule: Q01DX009 (ip), vehicle: water): 103 % of control
- T/C (dose: 25.0 mg/kg/injection, schedule: Q01DX009 (ip), vehicle: water): 100 % of control

SMILES: CCCOn1nnc2cc(Cl)ccc21
- T/C [4]: 102 % of control
- T/C [5]: 96 % of control
- T/C [6]: 99 % of control

SMILES: O=C1CP(=O)(O)CC2=C1CCC2
- T/C [1]: 96 % of control
- T/C [2]: 96 % of control
- T/C [3]: 100 % of control

SMILES: N#C/C(=C\c1c[nH]c2ccccc12)C(N)=O
- T/C (dose: 100.0 mg/kg/injection, schedule: Q04DX003 (ip), vehicle: saline with Tween-80): 100 % of control
- T/C (dose: 200.0 mg/kg/injection, schedule: Q04DX003 (ip), vehicle: saline with Tween-80): 100 % of control
- T/C (dose: 400.0 mg/kg/injection, schedule: Q04DX003 (ip), vehicle: saline with Tween-80): 100 % of control

SMILES: O=C(O)CC(CC(=O)O)CN(CC(=O)O)Cc1ccccc1
- T/C (dose: 20.0 mg/kg/injection, schedule: Q01DX005 (ip), vehicle: Klucel (hydroxypropylcellulose) (HPC)): 102 % of control
- T/C (dose: 40.0 mg/kg/injection, schedule: Q01DX005 (ip), vehicle: Klucel (hydroxypropylcellulose) (HPC)): 90 % of control
- T/C (dose: 80.0 mg/kg/injection, schedule: Q01DX005 (ip), vehicle: Klucel (hydroxypropylcellulose) (HPC)): 91 % of control

SMILES: CC[C@@]1(O)C[C@H](OC2CC(N(C)C)C(OC3CC4OC5CC(=O)C(C)OC5OC4C(C)O3)C(C)O2)c2c(cc3c(c2O)C(=O)c2c(O)cccc2C3=O)[C@H]1C(=O)OC (stereo partly drawn)
- T/C (dose: 0.12 mg/kg/injection, schedule: Q01DX009 (ip), vehicle: water): 117 % of control
- T/C (dose: 0.25 mg/kg/injection, schedule: Q01DX009 (ip), vehicle: water): 115 % of control
- T/C (dose: 0.5 mg/kg/injection, schedule: Q01DX009 (ip), vehicle: water): 110 % of control
- T/C (dose: 1.0 mg/kg/injection, schedule: Q01DX009 (ip), vehicle: water): 110 % of control
- T/C (dose: 4.0 mg/kg/injection, schedule: Q01DX009 (ip), vehicle: water): 162 % of control

SMILES: O=C1c2ccccc2C(=O)c2nc(CBr)c(CBr)nc21
- T/C (dose: 5.0 mg/kg/injection, schedule: Q01DX005 (ip), vehicle: saline): 100 % of control
- T/C (dose: 10.0 mg/kg/injection, schedule: Q01DX005 (ip), vehicle: saline): 100 % of control
- T/C (dose: 20.0 mg/kg/injection, schedule: Q01DX005 (ip), vehicle: saline): 97 % of control

SMILES: CC(C)(C)C1=CS(=O)(=O)C(C(C)(C)C)C(O)O1 (stereo not drawn)
- T/C [6]: 100 % of control

SMILES: C1CNC2NCCNC2N1 (stereo not drawn)
- T/C [1]: 118 % of control

SMILES: CC12CCC(Br)C(C)(C)C1C(O)C=C1C(=O)OCC1O2 (stereo not drawn)
- T/C (dose: 4.0 mg/kg/injection, schedule: Q01DX005 (ip), vehicle: Klucel (hydroxypropylcellulose) (HPC)): 102 % of control
- T/C (dose: 8.0 mg/kg/injection, schedule: Q01DX005 (ip), vehicle: Klucel (hydroxypropylcellulose) (HPC)): 96 % of control
- T/C (dose: 16.0 mg/kg/injection, schedule: Q01DX005 (ip), vehicle: Klucel (hydroxypropylcellulose) (HPC)): 102 % of control
- T/C (dose: 32.0 mg/kg/injection, schedule: Q01DX005 (ip), vehicle: Klucel (hydroxypropylcellulose) (HPC)): 102 % of control

SMILES: O=C(O)C1CC1.[Ag]
- T/C (dose: 3.12 mg/kg/injection, schedule: Q01DX009 (ip), vehicle: saline with Tween-80): 153 % of control
- T/C [4]: 97 % of control

SMILES: COC(=O)Nc1ccc(NC(=O)OC)c2c1C(=O)c1ccccc1C2=O
- T/C (dose: 50.0 mg/kg/injection, schedule: Q01DX005 (ip), vehicle: saline): 95 % of control
- T/C (dose: 100.0 mg/kg/injection, schedule: Q01DX005 (ip), vehicle: saline): 95 % of control
- T/C (dose: 200.0 mg/kg/injection, schedule: Q01DX005 (ip), vehicle: saline): 88 % of control

SMILES: CC(C)C1NC(=O)C2=CN(Cc3ccccc3)C=CC2NC(=O)C(C(C)C)NC(=O)C2=CN(Cc3ccccc3)C=CC2NC1=O (stereo not drawn)
- T/C (dose: 60.0 mg/kg/injection, schedule: Q01DX005 (ip), vehicle: saline with Tween-80): 94 % of control
- T/C (dose: 120.0 mg/kg/injection, schedule: Q01DX005 (ip), vehicle: saline with Tween-80): 100 % of control
- T/C (dose: 240.0 mg/kg/injection, schedule: Q01DX005 (ip), vehicle: saline with Tween-80): 97 % of control
